{"source": "patent EP2657347A1", "about": "“Electrochemical competitive assay and use thereof” (Université Paris Diderot - Paris 7, priority 2012, dated 2013)", "key": {"[1]": {"tested_on": "49-mer scramble oligonucleotide", "assay": "Redox-mediated catalytic cyclic voltammetry titration with random DNA control", "assay_type": "binding", "details": "random sequence with the same GC ratio", "experimental": "2-Amino-1,3-propanediol hydrochloride (Aldrich), 2-amino-1,3-propanediol (Aldrich), NaCl (Fluka), MgCl2 (Sigma), 1-tyrosinamide (Aldrich), d-tyrosinamide (Millegen, France), paracetamol (Aldrich) and tyrosine (Sigma), triphenylphosphine (Aldrich), diethylazidocarboxylate solution (DEAD) (Aldrich), and ferrocene methanol (Aldrich) were used without further purification. All syntheses were performed with freshly distilled solvents (THF and MeOH). The oligonucleotides (1-DNA and d-DNA) were synthesized and HPLC-purified by Eurogentec (Anger, France) and their concentration was controlled by UV-Vis spectroscopy using a Nanodrop 2000 spectrophotometer (ThermoFisher). The oligonucleotides sequences were: • Apt49-T: (SEQ ID NO: 1) 5'-[…] ― 3' • Scramble: (SEQ ID NO: 2) 5'- […] ― 3'\nAll experiments were performed in 5 mM Tris buffer (pH 7) containing 10 mM MgCl2 and 50 mM NaCl (Recognition Buffer, RBr). The L-Tym concentration is always 5 µM. For cyclic voltammetric experiments, 1 µM [Os(bpy)3]2+ with 5 µM 1-Tym in a droplet of 50 µL RBr was used. So, before each experiment, the droplet is shaking with a micropipette. This procedure is repeated until we obtain a reproducible and stable voltammogram. Mother solution of Fc-1-Tym was a […] solution in DMF. This product is conserved at 4°C and seal with parafilm. […]"}, "[2]": {"target": "anti-L-tyrosinamide aptamer", "details": "previously determined by isothermal titration calorimetry; cited from earlier work"}, "[3]": {"target": "anti-L-tyrosinamide aptamer", "details": "previously determined by fluorescence polarization; cited from earlier work"}}, "note": "pKd: −log10 of the molar value. Where two headings read alike, the source gives them in different places.", "data": [{"smiles": "NC(=O)[C@@H](N)Cc1ccc(O)cc1", "note": "[L-Tym, L-tyrosinamide]", "values": [{"measurement": "current response when the aptamer was replaced by a 49-mer random DNA sequence", "setting": "[1]", "value": "no significant current response decrease"}, {"measurement": "pKd", "setting": "[2]", "value": "5.49 to 5.76"}, {"measurement": "pKd", "setting": "[3]", "value": "5.66 to 5.77"}]}]}
